Measured values taken from the supplement of paper PMC10949913.

Key:
Conditions in all cases: 48 h
NCI-H295R [1] = test: area under concentration-response curve (viability) (AUC (a.u.)); higher = less active
How it was run: (§1)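 Luminescence from CellTiter-Glo, read after 48 h, measured three adrenocortical carcinoma cell lines treated in 1,536-well plates with library compounds at 11 concentrations. Values were normalised per plate to vehicle and empty-well controls. The AC50 and area under the curve come from fitted concentration-response curves in inhibitory or non-responding classes only.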

NCI-H295R [2] = test: AC50 viability; higher = less potent
How it was run: as §1

CU-ACC1 = test: area under concentration-response curve (viability) (AUC (a.u.)); higher = less active
How it was run: as §1

CU-ACC2 = test: as above
How it was run: as §1

Cc1ccc(Nc2nnc(Cc3ccncc3)c3ccccc23)cc1Br
area under concentration-response curve (NCI-H295R [1]): 438 | AC50 viability (NCI-H295R [2]): 18.6 µM

CN(C)CC[C@H](CSc1ccccc1)Nc1ccc([S+](=O)([O-])NC(=O)c2ccc(N3CCN(Cc4ccccc4-c4ccc(Cl)cc4)CC3)cc2)cc1[N+](=O)[O-]
area under concentration-response curve (NCI-H295R [1]): 535 | AC50 viability (NCI-H295R [2]): 18.6 µM

Cc1ccc(Sc2ccccc2N2CCNCC2)c(C)c1
area under concentration-response curve (NCI-H295R [1]): 455 | AC50 viability (NCI-H295R [2]): 20.9 µM

CN(C)CC(=O)N1CCC(CC1)C2=CC=C(NC(=O)C3=NC(=C[NH]3)C#N)C(=C2)\C4=C\CCCC4
area under concentration-response curve (NCI-H295R [1]): 553 | AC50 viability (NCI-H295R [2]): 23.5 µM

CCN(C)[S+](=O)([O-])Nc1ccc(F)c(C(=O)c2c[nH]c3ncc(-c4cnc(C5CC5)nc4)cc23)c1F
area under concentration-response curve (NCI-H295R [1]): 502 | AC50 viability (NCI-H295R [2]): 18.6 µM

CC(=O)N1CCN(c2ccc(OC[C@H]3CO[C@](Cn4ccnc4)(c4ccc(Cl)cc4Cl)O3)cc2)CC1
area under concentration-response curve (NCI-H295R [1]): 342 | AC50 viability (NCI-H295R [2]): 20.9 µM

COc1cc(Oc2ccnc3cc(OC)c(OC)cc23)ccc1NC(=O)NC(C)c1nccs1 (centres undefined)
area under concentration-response curve (NCI-H295R [1]): 540 | AC50 viability (NCI-H295R [2]): 14.8 µM

Clc1ccc(CCC(Cn2ccnc2)Sc2c(Cl)cccc2Cl)cc1 (centres undefined)
area under concentration-response curve (NCI-H295R [1]): 491 | AC50 viability (NCI-H295R [2]): 33.2 µM

Cc1cncc2cccc([S+](=O)([O-])N3CCCN(C(=O)CN)C[C@@H]3C)c12
area under concentration-response curve (NCI-H295R [1]): 433 | area under concentration-response curve (CU-ACC1): 465 | AC50 viability (NCI-H295R [2]): 16.6 µM

CCN(CC)CCCCNc1ncc2c(n1)N(C)C(=O)N(c1c(Cl)c(OC)cc(OC)c1Cl)C2
area under concentration-response curve (NCI-H295R [1]): 524 | area under concentration-response curve (CU-ACC1): 520 | AC50 viability (NCI-H295R [2]): 16.6 µM

NCC(=O)Nc1ccc(-n2nc(C(F)(F)F)cc2-c2ccc3c(ccc4ccccc43)c2)cc1
area under concentration-response curve (NCI-H295R [1]): 551 | AC50 viability (NCI-H295R [2]): 23.5 µM

CN(C)CCNC(=O)NC[C@H]1CC[C@@H]2[C@H](O1)c1cc(C(F)(F)F)ccc1N[C@H]2c1ccccc1
area under concentration-response curve (NCI-H295R [1]): 437 | AC50 viability (NCI-H295R [2]): 5.9 µM

COC(=O)Nc1nc2cc([S+]([O-])c3ccccc3)ccc2[nH]1 (centres undefined)
area under concentration-response curve (NCI-H295R [1]): 522 | AC50 viability (NCI-H295R [2]): 11.8 µM

CCOC(=O)[C@@H](N)Cc1ccc(-c2cc(O[C@H](c3ccc(Cl)cc3-n3ccc(C)n3)C(F)(F)F)nc(N)n2)cc1
area under concentration-response curve (NCI-H295R [1]): 506 | AC50 viability (NCI-H295R [2]): 20.9 µM

COc1cc(Nc2ncc(F)c(Nc3ccc4c(n3)N(COP(=O)(O)O)C(=O)C(C)(C)O4)n2)cc(OC)c1OC
area under concentration-response curve (NCI-H295R [1]): 512 | AC50 viability (NCI-H295R [2]): 14.8 µM

CCOc1cc2c(c(F)c1OCC)C(=N)N(CC(=O)c1cc(N3CCOCC3)c(OC)c(C(C)(C)C)c1)C2
area under concentration-response curve (NCI-H295R [1]): 492 | AC50 viability (NCI-H295R [2]): 20.9 µM

COc1c(C)c2c(c(O)c1C/C=C(\C)CCC(=O)OCCN1CCOCC1)C(=O)OC2
area under concentration-response curve (NCI-H295R [1]): 429 | AC50 viability (NCI-H295R [2]): 0.468 µM

CCCCc1oc2ccccc2c1C(=O)c1cc(I)c(OCCN(CC)CC)c(I)c1
area under concentration-response curve (NCI-H295R [1]): 479 | AC50 viability (NCI-H295R [2]): 23.5 µM

C[C@@H]1C[C@H]2[C@@H]3CC\C4=C\C(=O)\C=C/[C@]4(C)[C@@]3(Cl)[C@@H](O)C[C@]2(C)[C@@]1(OC(=O)C5=CC=CO5)C(=O)CCl
area under concentration-response curve (NCI-H295R [1]): 580 | AC50 viability (NCI-H295R [2]): 37.2 µM

O=C(Nc1nc2cccc(-c3ccc(CN4CC[S+](=O)([O-])CC4)cc3)n2n1)C1CC1
area under concentration-response curve (NCI-H295R [1]): 535 | AC50 viability (NCI-H295R [2]): 18.6 µM

CCN(CC)CCCCNc1ncc2cc(-c3cc(OC)cc(OC)c3)c(NC(=O)NC(C)(C)C)nc2n1
area under concentration-response curve (NCI-H295R [1]): 476 | AC50 viability (NCI-H295R [2]): 23.5 µM

CCN(CC)C(=O)C1=CC=C(C=C1)C/2=C/C3(CCNCC3)OC4=CC=CC(=C24)O
area under concentration-response curve (NCI-H295R [1]): 404 | AC50 viability (NCI-H295R [2]): 20.9 µM

Cc1ncc(NC(=O)c2ccc(CN3CCN(C)CC3)c(C(F)(F)F)c2)cc1Nc1nccc(-c2cccnc2)n1
area under concentration-response curve (NCI-H295R [1]): 493 | AC50 viability (NCI-H295R [2]): 23.5 µM

Cc1ccc([C@@H]2O[C@H](CO)[C@@H](O)[C@H](O)[C@H]2O)cc1Cc1ccc(-c2ccc(F)cc2)s1
area under concentration-response curve (NCI-H295R [1]): 521 | AC50 viability (NCI-H295R [2]): 23.5 µM

O=C(c1ccc(OCCN2CCCCC2)cc1)c1c(-c2ccc(O)cc2)sc2cc(O)ccc12
area under concentration-response curve (NCI-H295R [1]): 557 | AC50 viability (NCI-H295R [2]): 23.5 µM

Cn1c(CNc2ccc(C(=N)N)cc2)nc2cc(C(=O)N(CCC(=O)O)c3ccccn3)ccc21
area under concentration-response curve (NCI-H295R [1]): 834 | area under concentration-response curve (CU-ACC2): 929 | area under concentration-response curve (CU-ACC1): 715

C[C@@H]1CC[C@H]2[C@@H](C)C(=O)O[C@@H]3O[C@@]4(C)CC[C@@H]1[C@]32OO4
area under concentration-response curve (NCI-H295R [1]): 556 | area under concentration-response curve (CU-ACC2): 604 | area under concentration-response curve (CU-ACC1): 547

O=S(=O)([O-])CCS
area under concentration-response curve (NCI-H295R [1]): 551 | area under concentration-response curve (CU-ACC2): 518 | area under concentration-response curve (CU-ACC1): 539

COc1ccc(/C=C/C(=O)Nc2ccccc2C(=O)O)cc1OC
area under concentration-response curve (NCI-H295R [1]): 496 | area under concentration-response curve (CU-ACC2): 517 | area under concentration-response curve (CU-ACC1): 439

O=C(c1c(F)ccc(N[S+](=O)([O-])N2CC[C@@H](F)C2)c1F)c1c[nH]c2ncc(-c3cnc(C4CC4)nc3)cc12
area under concentration-response curve (NCI-H295R [1]): 474 | area under concentration-response curve (CU-ACC2): 574 | area under concentration-response curve (CU-ACC1): 470

C=C[C@H]1CN2CC[C@H]1C[C@H]2[C@H](O)c1ccnc2ccc(OC)cc12
area under concentration-response curve (NCI-H295R [1]): 521 | area under concentration-response curve (CU-ACC2): 602 | area under concentration-response curve (CU-ACC1): 501

c1ccc2c(CN3CCNCC3)cccc2c1
area under concentration-response curve (NCI-H295R [1]): 580 | area under concentration-response curve (CU-ACC2): 647 | area under concentration-response curve (CU-ACC1): 525

CCc1nc(N)nc(N)c1-c1ccc(Cl)cc1
area under concentration-response curve (NCI-H295R [1]): 521 | area under concentration-response curve (CU-ACC2): 564 | area under concentration-response curve (CU-ACC1): 483

O=C(O)CNC(=O)C1C(=O)N(C2CCCCC2)C(=O)N(C2CCCCC2)C1=O
area under concentration-response curve (NCI-H295R [1]): 479 | area under concentration-response curve (CU-ACC2): 483 | area under concentration-response curve (CU-ACC1): 473

C[C@H](O)[C@H]1[C@@H]2[C@H](C)C(=C(\N2C1=O)C(O)=O)/S[C@@H]3CN[C@H](CN[S+](N)([O-])=O)C3
area under concentration-response curve (NCI-H295R [1]): 578 | area under concentration-response curve (CU-ACC2): 643 | area under concentration-response curve (CU-ACC1): 516

COC1=C(NC2=NC=C(Cl)C(=N2)N[C@@H]3[C@H]\4C[C@@H](\C=C4)[C@H]3C(N)=O)C=CC5=C1CCC(CC5)N6CCOCC6 (some centres undefined)
area under concentration-response curve (NCI-H295R [1]): 460 | area under concentration-response curve (CU-ACC2): 600 | area under concentration-response curve (CU-ACC1): 526

COC(=O)N(C)c1c(N)nc(-c2nn(Cc3ccccc3F)c3ncccc23)nc1N
area under concentration-response curve (NCI-H295R [1]): 488 | area under concentration-response curve (CU-ACC2): 586 | area under concentration-response curve (CU-ACC1): 488

C[S+](=O)([O-])N(Cc1ccco1)CC(O)Cn1c2ccccc2c2ccccc21 (centres undefined)
area under concentration-response curve (NCI-H295R [1]): 473 | area under concentration-response curve (CU-ACC2): 515 | area under concentration-response curve (CU-ACC1): 477

N#Cc1ccc(C2CCCc3cncn32)cc1 (centres undefined)
area under concentration-response curve (NCI-H295R [1]): 479 | area under concentration-response curve (CU-ACC2): 544 | area under concentration-response curve (CU-ACC1): 503
